In PMC11097166, “Imidazole-Derived Alkyl and Aryl Ethers: Synthesis, Characterization, In Vitro Anticancer and Antioxidant Activities, Carbonic Anhydrase I–II Inhibition Properties, and In Silico Studies” (ACS Omega, 2024):

Legend:
[1] = system: C6 rat glial tumor cell line; experiment: MTT cell viability assay on C6; assay type: cell-based; settings: 24 h incubation
Text: (§1) 96-well plates were used for seeding cells. […] All compounds were run in three repetitions.

[2] = system: HT29 colon cancer cell line; experiment: MTT cell viability assay on HT29; assay type: cell-based, human; settings: 24 h incubation
Text: as §1

[3] = system: MCF7 human breast adenocarcinoma cell line; experiment: MTT cell viability assay on MCF7; assay type: cell-based; settings: 24 h incubation
Text: as §1

FRAP antioxidant assay = settings: trolox standard curve
Procedure: The FRAP method was used to determine the antioxidant power of compounds. This method, which determines the reducing power of compounds, was developed by Benzie and Strain.[48] Fe(III)–TPTZ complex is formed as a result of the reaction of Fe(III) with tripyridyltriazine (TPTZ), and this complex is reduced to the Fe(II)–TPTZ complex with the antioxidant in the environment. The color of this complex is dark blue and gives the maximum absorbance at 593 nm.[48] Incubation is performed for up to 30 min to complete the reaction, and the correct absorbance values were read. The FRAP values of the samples were calculated as “μmol trolox equiv/g sample” with the help of the standard curve obtained using methanol–trolox standard solutions (0; 0.2; 0.4; 0.6; 0.8; and 1.0 μmol/mL) which were used as the positive control.[49] […]

hCA I = hCA I (Homo sapiens, UniProt P00915); experiment: CA esterase activity method, hCA I; assay type: biochemical; settings: Table S3; note: key: +: active; -: not effect
Text: (§2) The method used to spectrophotometrically detect the antiepileptic, antiglaucoma, and […] effects of the obtained compounds in vitro is the esterase activity method. This method relies on the esterase activity of CA for the hydrolysis of p-nitrophenyl acetate as a substrate, which is a part of the reaction mechanism involving p-nitrophenol or p-nitrophenolate.

hCA II = hCA II (Homo sapiens, UniProt P00918); experiment: CA esterase activity method, hCA II; assay type: biochemical; settings: Table S3; note: key: +: active; -: not effect
Text: as §2

[4] = system: L929 mouse fibroblast cell line
Procedure: (§3) Human breast adenocarcinoma cell line (MCF7), rat glial tumor cell line (C6), healthy mouse fibroblast cell line (L929), and colon cancer (HT29) cell line were purchased from ATCC (American type culture collection) and studied.
(§4) The cytotoxic effects of all compounds by MTT analysis on L929, HT29, MCF7, and C6 cell lines were investigated. 96-well plates were used for seeding cells. Approximately 1 × 10^4 cells were seeded in each well. Cells were allowed to adhere for 24 h, and then the compounds were applied at different concentrations. All compounds were run in three repetitions. Wells with a maximum of 100 μM compounds were incubated for 24 h. Three wells without compounds treated with only DMSO (with total volume of % 0.5) were used as negative controls, and cisplatin was used as a positive control. […] After the MTT interaction, the FRAP wells were emptied, and DMSO solution was placed in them. The formazan crystals formed were dissolved with this solution, and the number of viable cells in each well was determined by color change.

[5] = system: L929 mouse fibroblast cell line; experiment: MTT cell viability assay on L929; settings: read-out: IC50 L929; 24 h incubation, MTT
Procedure: as §3, §4

Chain of hCA I (P00915 whole entry): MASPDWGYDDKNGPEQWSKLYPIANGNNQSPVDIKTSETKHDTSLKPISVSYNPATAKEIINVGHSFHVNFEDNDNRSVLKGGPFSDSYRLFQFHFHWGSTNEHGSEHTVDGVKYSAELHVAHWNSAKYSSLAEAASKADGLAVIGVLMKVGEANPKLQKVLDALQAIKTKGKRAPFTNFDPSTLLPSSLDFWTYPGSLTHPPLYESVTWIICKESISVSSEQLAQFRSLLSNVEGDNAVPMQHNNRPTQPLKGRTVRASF

IC50 [1]: 43.8 ± 5.83 µM | IC50 [2]: 88.4 ± 15.7 µM | IC50 [3]: 101 ± 14.5 µM | Effect on hCA I isoenzyme activity (hCA I): + | Effect on hCA II isoenzyme activity (hCA II): +
Substance: 2-(1H-Imidazol-1-yl)-1-(4-methoxyphenyl)ethenol [Compound 4c]
FRAP (FRAP antioxidant assay): 0.29 ± 0.05 μmol trolox equiv/g | viability on healthy cell line at maximum dose [4]: at least 50% | IC50 [5]: 194 ± 12.2 µM
